This passage reports Activity results from ChEMBL document CHEMBL6096628, “Discovery of a Highly Potent and Selective BRD9 PROTAC Degrader Based on E3 Binder Investigation for the Treatment of Hematological Tumors” (J Med Chem, 2024).

The source made the active and inactive calls. The rule behind the calls is not given here.

One assay has as its system MV4-11. Briefly: Downregulation of AXIN2 mRNA expression level in human MV4-11 cells at 0.1 to 10 nM measured after 24 to 48 hrs by qPCR analysis. The assay is classed as functional, cell-based. The note with it: dose 0.1-10 nM, time 24-48 hrs.
A further assay has as its system OCI-Ly10. Briefly: Antitumor activity against human OCI-Ly10 cells xenografted in Balb/c nude mouse assessed as relative tumor volume at 30 mg/kg, po administered once daily for 18 days (reference value: 9.07 +/- 4.66). The format is functional. The note with it: time 18 day.

Consider `COc1cc(-c2cn(C)c(=O)c3ccccc23)cc(OC)c1CN1CCC(CN2CCC(c3ccc4c5c(cccc35)C(=O)N4C3CCC(=O)NC3=O)CC2)CC1` (configuration not stated), for which the outcome with MV4-11 was Active. Further, in the assay with OCI-Ly10, the Activity was found to be 4.
